This is an account of results in patent US20040170645A1, “Seaweed extract composition for retardation of cardiovascular disorders and preservation of healthy cardiovascular function” (priority 2002, published 2004).

This test relates to thrombus in the right jugular vein. As to the kind of experiment: Thrombosis test (jugular vein, formalin/methanol initiated). The format is in vivo, rat. The following applies: 7.5 mg/kg oral, 4 h. As to the method:
One hundred and two male Wistar rats, weighing 312±64 g (±SD), were handled and housed according to the Principles of Animal Care set out by the Canadian Federation of Biological Societies. The animals were fasted overnight prior to treatment and were anaesthetized with barbital and methoxyflurane for experimental procedures.
The rhamnan-arginine complex was weighed fresh daily. Six to 8 rats were treated per day. […] Thus when the stomach tube was placed in the stomach the drugs were first introduced into the stomach followed by saline to give a total volume of approximately 0.4 ml. In the heparin alone group, heparin was administered in a volume of 0.1-0.2 ml followed by 0.2 ml saline. Control group was saline alone.
The thrombosis test was performed by a modification of the procedure by Blake et al. For animals exposed to treatment for 4 h, a thrombus was initiated in the right jugular vein by application of 10% formalin in 65% methanol to the exposed adventitial surface. Immediately following, drugs were introduced into the stomach by stomach tube. […] The clot was scored as + (hard clot) if the vessel is blocked and remained blocked despite examination with a cotton pledget. […] The thrombus was scored as − (negative) if blood was seen to flow freely in the vessel.
Thrombosis data is expressed as a percentage with 95% confidence intervals. […] Other data is expressed as mean ±SE. […]

For the substance Heparin, the “incidence of hard clots” value is “reduced the percentage of incidence of hard clots” and the “total incidence of thrombosis” value is reported as “little or no effect”.
